Results taken from ChEMBL document CHEMBL4024730 (Bioorg Med Chem Lett, 2017).

Test system: HeLa
Assay: Cytotoxicity against human HeLa cells assessed as cell death at 1 uM after 24 hrs MTT assay relative to control
Assay type: cell-based

O=C(/C=C/c1ccccc1)N[C@@H](c1ccccc1)[C@@H](OC(=O)c1ccccc1)C(=O)NC1CCCCC1
Activity: < 10%
